Experimental data: PubChem BioAssay (NCI)
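Values below derive from 48-hour exposures of cells grown in 96-well plates, with endpoints linearly interpolated between the two concentrations bracketing the appropriate inhibition level. TGI denotes the concentration required for complete inhibition of growth.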

Legend:
Assay in all cases: growth of human tumour cells (NCI), 48 h
[1] = tested on: NCI-H23 lung
[2] = tested on: ACHN renal
[3] = tested on: SF-268 CNS
[4] = tested on: K-562 leukemia
[5] = tested on: SNB-19 CNS
[6] = tested on: OVCAR-5 ovarian
[7] = tested on: MOLT-4 leukemia
[8] = tested on: A549 NSCLC
[9] = tested on: SN12C renal
[10] = tested on: HL-60(TB) leukemia
[11] = tested on: PC-3 prostate
[12] = tested on: U251 CNS
[13] = tested on: HT29 colon
[14] = tested on: CCRF-CEM leukemia
[15] = tested on: OVCAR-3 ovarian
[16] = tested on: SK-OV-3 ovarian
[17] = tested on: OVCAR-8 ovarian
[18] = tested on: HCT-15 colon
[19] = tested on: DU-145 prostate
[20] = tested on: HCT-116 colon
[21] = tested on: RXF 393 renal
[22] = tested on: OVCAR-4 ovarian
[23] = tested on: HOP-92 NSCLC
[24] = tested on: MDA-MB-435
[25] = tested on: SK-MEL-2 melanoma
[26] = tested on: SK-MEL-5 melanoma
[27] = tested on: COLO 205 colon
[28] = tested on: EKVX NSCLC
[29] = tested on: T-47D breast
[30] = tested on: HOP-62 NSCLC
[31] = tested on: SK-MEL-28 melanoma
[32] = tested on: KM12 colon
[33] = tested on: M14 melanoma
[34] = tested on: MDA-MB-231 breast
[35] = tested on: HS 578T breast
[36] = tested on: HCC-2998 colon
[37] = tested on: BT-549 breast
[38] = tested on: SR leukemia
[39] = tested on: 786-0 renal
[40] = tested on: MCF7 breast
[41] = tested on: TK-10 renal
[42] = tested on: NCI-H460 lung
[43] = tested on: UACC-257 melanoma
[44] = tested on: MALME-3M melanoma
[45] = tested on: NCI-H226 lung
[46] = tested on: SNB-75 CNS
[47] = tested on: IGROV1 ovarian
[48] = tested on: MDA-N
[49] = tested on: CAKI-1 renal
[50] = tested on: SF-295 CNS
[51] = tested on: SF-539 CNS
[52] = tested on: NCI/ADR-RES ovarian
[53] = tested on: LOX IMVI melanoma
[54] = tested on: NCI-H522 lung
[55] = tested on: UACC-62 melanoma
[56] = tested on: SW-620 colon
[57] = tested on: UO-31 renal
[58] = tested on: RPMI-8226 leukemia
[59] = tested on: A498 renal

SMILES: COC(=O)c1oc([N+](=O)[O-])c(Cl)c1Cl
- TGI [1]: 17.4 µM
- TGI [2]: 15.6 µM
- TGI [3]: 17.5 µM
- TGI [4]: 6.48 µM
- TGI [5]: 35.4 µM
- TGI [6]: 14.8 µM
- TGI [7]: 4.93 µM
- TGI [8]: 37.7 µM
- TGI [9]: 14.2 µM
- TGI [10]: 3.24 µM
- TGI [11]: 15.1 µM
- TGI [12]: 15.5 µM
- TGI [13]: 41.4 µM
- TGI [14]: 7.35 µM
- TGI [15]: 11.4 µM
- TGI [16]: 33.2 µM
- TGI [17]: 30.4 µM
- TGI [18]: 18.2 µM
- TGI [19]: 32.5 µM
- TGI [20]: 12.9 µM
- TGI [21]: 28 µM
- TGI [22]: 17.4 µM
- TGI [23]: 39.3 µM
- TGI [24]: 14.6 µM
- TGI [25]: 31.6 µM
- TGI [26]: 17.7 µM
- TGI [27]: 8.61 µM
- TGI [28]: 36.8 µM
- TGI [29]: 13.1 µM
- TGI [30]: 17 µM
- TGI [31]: 15.8 µM
- TGI [32]: 14.5 µM
- TGI [33]: 13.8 µM
- TGI [34]: 14 µM
- TGI [35]: 29.3 µM
- TGI [36]: 35 µM
- TGI [37]: 14.8 µM
- TGI [38]: 4.89 µM
- TGI [39]: 16.4 µM
- TGI [40]: 6.27 µM
- TGI [41]: 14 µM
- TGI [42]: 34.6 µM
- TGI [43]: 15.2 µM
- TGI [44]: 14.3 µM
- TGI [45]: 42.9 µM
- TGI [46]: 20.8 µM
- TGI [47]: 14.8 µM
- TGI [48]: 14.9 µM
- TGI [49]: 7.4 µM
- TGI [50]: 24.7 µM
- TGI [51]: 14.4 µM
- TGI [52]: 36.5 µM
- TGI [53]: 13.7 µM
- TGI [54]: 3.33 µM
- TGI [55]: 15.7 µM
- TGI [56]: 10 µM
- TGI [57]: 14.5 µM
- TGI [58]: 15.8 µM
- TGI [59]: 23 µM

SMILES: CCCCCCCCCCc1c2nc(c(CCCCCCCCCC)c3ccc([nH]3)c(CCCCCCCCCC)c3ccc([nH]3)c(CCCCCCCCCC)c3nc1C=C3)C=C2
- TGI [1]: > 100 µM
- TGI [2]: > 100 µM
- TGI [3]: > 100 µM
- TGI [4]: > 100 µM
- TGI [5]: > 100 µM
- TGI [6]: > 100 µM
- TGI [7]: > 100 µM
- TGI [8]: > 100 µM
- TGI [9]: > 100 µM
- TGI [10]: > 100 µM
- TGI [11]: > 100 µM
- TGI [12]: > 100 µM
- TGI [13]: > 100 µM
- TGI [14]: > 100 µM
- TGI [15]: > 100 µM
- TGI [16]: > 100 µM
- TGI [17]: > 100 µM
- TGI [18]: > 100 µM
- TGI [19]: > 100 µM
- TGI [20]: > 100 µM
- TGI [21]: > 100 µM
- TGI [22]: > 100 µM
- TGI [23]: > 100 µM
- TGI [24]: > 100 µM
- TGI [25]: > 100 µM
- TGI [26]: > 100 µM
- TGI [27]: > 100 µM
- TGI [28]: > 100 µM
- TGI [29]: > 100 µM
- TGI [30]: > 100 µM
- TGI [31]: > 100 µM
- TGI [32]: > 100 µM
- TGI [33]: > 100 µM
- TGI [34]: > 100 µM
- TGI [35]: > 100 µM
- TGI [36]: > 100 µM
- TGI [37]: > 100 µM
- TGI [38]: > 100 µM
- TGI [39]: > 100 µM
- TGI [40]: > 100 µM
- TGI [41]: > 100 µM
- TGI [42]: > 100 µM
- TGI [43]: > 100 µM
- TGI [44]: > 100 µM
- TGI [45]: > 100 µM
- TGI [46]: > 100 µM
- TGI [47]: > 100 µM
- TGI [48]: > 100 µM
- TGI [49]: > 100 µM
- TGI [50]: > 100 µM
- TGI [51]: > 100 µM
- TGI [52]: > 100 µM
- TGI [53]: > 100 µM
- TGI [54]: > 100 µM
- TGI [55]: > 100 µM
- TGI [56]: > 100 µM
- TGI [57]: > 100 µM
- TGI [58]: > 100 µM
- TGI [59]: > 100 µM
